Data from US20240165170A1, “USE OF LACTIC ACID BACTERIUM SET FOR PREVENTING OR TREATING NSAID-INDUCED GASTRIC ULCER” (GRAPE KING BIO LTD., priority 2022, published 2024).
Values joined by “and” are separate entries in the source; they are usually repeats but may differ in a detail not shown here. Equal values may be shown once.

Columns and labels:
ICR male mice = assay: aspirin-induced gastric ulcer test in ICR mice (ulcer area, ulcer index, cure rate, mucosal ulcer pathology); format: in vivo; design: key to Mucosal ulcer (pathological indicator, score per mouse): Grade 0 represents no ulcers occurred in normal tissue; Grade 1 represents less than ⅓ of superficial ulcer lesions in gastric mucosa; Grade 2 represents about ½ of superficial to middle ulcer lesions in gastric mucosa; Grade 3 represents about ⅔ of superficial to deep ulcer lesions in gastric mucosa; grade 4 represents gastric mucosal epithelial full-thickness ulcer and the lesion penetrates 3/3 of the muscle layer
Description: A total of 24 ICR male mice purchased from BioLASCO (Lesco Biotechnology) were used as the experimental animals, each about 25 grams. The mice were kept in a general mouse cage, the room temperature was maintained at 22±3° C., the humidity was 55±15%, and the light and darkness were regularly 12 hours (12 hr light-dark cycle). Feed and sterile reverse osmosis water was allowed to be eaten by mice freely. Newly imported animals need to be observed for 3-5 days to ensure that there is no abnormality before testing. Before the experiment, the ICR mice were randomly grouped and caged, and each ICR mouse was marked with an ear number for identification and recording.
(§1) 24 mice were divided into a blank control group, a negative control group, a positive control group and a lactic acid bacteria test group, and there were 6 mice in each group. The mice were administered once a day for 39 consecutive days. The blank control group and the negative control group were given drinking water, the positive control group was given 20 mg/kg Omeprazole, and the lactic acid bacteria test group was given GKD7 and GKA4 freeze-dried powder, each 10.2 mg/kg/day. On day 29, 500 mg/kg aspirin was administered to the negative control group, positive control group and lactic acid bacteria test group to induce gastric ulcer (the blank control group was not administered) for 10 days (D29-D39), and finally the mice were sacrificed on D40 and performed various analyses.
(§2) The body weight of the mice was recorded every week, and after 39 consecutive days of administration, the mice were sacrificed with a high dose of Sutai 50 on the 40th day. The appearance, stomach tissues and organs of the mice were observed and made records.
Ulcer area statistics: ImageJ software was utilized to circle the ulcer focus of gastric tissue to calculate the gastric ulcer focus area of each ICR mouse. Each ulcer focus can get different scores according to the size of the ulcer (see the table below):
After each ulcer focus score is obtained, the application calculates the ulcer index of the mouse according to the following formula 1, and the higher the ulcer index, the more severe the ulcer.
If the experimental group mice (positive control group, lactic acid bacteria test group) are compared with the negative control group mice and the area of gastric ulcer (ulcer index) is reduced, it means that the experimental group produces a healing effect. Dividing the ulcer index of the experimental group by the ulcer index of the negative control group obtains the ulcer improvement rate, which is then subtracted from 1 to get the healing rate (cure rate) compared with the negative control group. The calculation method is shown as the following formula 2: […]

[1] = body weight change of mice during the test; format: in vivo; details: between groups in the same period, p>0.05
Description: as §1, §2

COc1ccc2[nH]c([S+]([O-])Cc3ncc(C)c(OC)c3C)nc2c1 (centres unmarked) [Omeprazole]
ulcer area (ICR male mice; ICR mice, once daily for 39 days, 500 mg/kg aspirin D29-D39, sacrificed D40, 6 mice per group): 7.12±2.15 mm^2
ulcer index (ICR male mice; ICR mice, once daily for 39 days, 500 mg/kg aspirin D29-D39, formula 1, higher index = more severe ulcer): 2.57±0.67
Cure rate (%) (ICR male mice; formula 2: 1 minus ulcer index of group / ulcer index of negative control group): 53.25%
Mucosal ulcer (pathological indicator, score per mouse) (ICR male mice; stomach histopathology, individual mice, grade 0-4, higher score = more serious damage, listed as Positive control group): 0 and 1
body weight of mice during the test [1]: no significant difference
